{"source": "patent US12448388B2", "about": "“PRMT5 inhibitors and uses thereof” (Gilead Sciences, Inc., priority 2023, dated 2025)"}
{"tested_on": "HCT116 MTAP-deleted cell lines", "assay": "Cell viability assay (CellTiter-Glo, 7 days), HCT116 MTAP-deleted", "assay_type": "cell-based", "conditions": "Homo sapiens, HCT-116; cell viability, HCT116 MTAP-deleted; class symbols; read-out: CC50", "outline": "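Read-out was CellTiter-Glo luminescence after a 7-day incubation (37 °C, 5% CO2) of HCT116 cells, MTAP-deleted or WT, on dose-response compound plates. CC50 values come from each line; where marked *, selectivity is overstated because poor solubility impaired the WT CC50 measurement.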", "units": {"CC50": "nM"}}
{"smiles": "CN(C(=O)c1cc2c(cc1F)nc(N)c1cncn12)[C@@H](c1ccc(C(F)(F)F)cc1)C(F)F", "note": "[Fb-9, (S)-4-amino-N-(2,2-difluoro-1-(4-(trifluoromethyl)phenyl)ethyl)-7-fluoro-N-methylimidazo[1,5-a]quinoxaline-8-carboxamide]", "CC50": "< 100"}
{"smiles": "CN(C(=O)c1cc2c(cc1F)nc(N)c1cncn12)[C@@H](c1ccc(OC(F)F)cc1F)C(F)F", "note": "[Fb-10, (S)-4-amino-N-(1-(4-(difluoromethoxy)-2-fluorophenyl)-2,2-difluoroethyl)-7-fluoro-N-methylimidazo[1,5-a]quinoxaline-8-carboxamide]", "CC50": "< 100"}
{"smiles": "CN(C(=O)c1cc2c(cc1F)nc(N)c1cncn12)[C@@H](c1ccc(OC(F)(F)F)cc1F)C(F)F", "note": "[Fb-11, (S)-4-amino-N-(2,2-difluoro-1-(2-fluoro-4-(trifluoromethoxy)phenyl)ethyl)-7-fluoro-N-methylimidazo[1,5-a]quinoxaline-8-carboxamide]", "CC50": "< 100"}
{"smiles": "CN(C(=O)c1cc2c(cn1)nc(N)c1cncn12)[C@@H](c1ccc(OC(F)(F)F)cc1F)C(F)F", "note": "[Fb-12, (S)-4-amino-N-(2,2-difluoro-1-(2-fluoro-4-(trifluoromethoxy)phenyl)ethyl)-N-methylimidazo[1,5-a]pyrido[3,4-e]pyrazine-8-carboxamide]", "CC50": "100 to 1000"}
{"smiles": "CN(C(=O)c1cc2c(cc1F)nc(N)c1cncn12)[C@@H](c1ccc(OC(F)(F)F)cc1)C(F)F", "note": "[Fb-13, (S)-4-amino-N-(2,2-difluoro-1-(4-(trifluoromethoxy)phenyl)ethyl)-7-fluoro-N-methylimidazo[1,5-a]quinoxaline-8-carboxamide]", "CC50": "< 100"}
{"smiles": "CN(C(=O)c1ccc2nc(N)c3cncn3c2c1)[C@@H](c1ccc(C(F)(F)F)cc1F)C(F)F", "note": "[Fb-14, (S)-4-amino-N-(2,2-difluoro-1-(2-fluoro-4-(trifluoromethyl)phenyl)ethyl)-N-methylimidazo[1,5-a]quinoxaline-8-carboxamide]", "CC50": "< 100"}
{"smiles": "CCN(C(=O)c1ccc2nc(N)c3cncn3c2c1)[C@@H](c1ccc(C(F)(F)F)cc1F)C(F)F", "note": "[Fb-15, (S)-4-amino-N-(2,2-difluoro-1-(2-fluoro-4-(trifluoromethyl)phenyl)ethyl)-N-ethylimidazo[1,5-a]quinoxaline-8-carboxamide]", "CC50": "< 100"}
{"smiles": "CC(=O)N(C)N(Cc1ccn(-c2ccc(F)cc2F)n1)C(=O)c1cc2c(cc1F)nc(N)c1cncn12", "note": "[Fb-16, N′-acetyl-4-amino-N-((1-(2,4-difluorophenyl)-1H-pyrazol-3-yl)methyl)-7-fluoro-N′-methylimidazo[1,5-a]quinoxaline-8-carbohydrazide]", "CC50": "100 to 1000"}
{"smiles": "CC(=O)N(C)N(Cc1ccc(C(F)(F)F)cc1Cl)C(=O)c1ccc2nc(N)c3cncn3c2c1", "note": "[Fb-17, N′-acetyl-4-amino-N-(2-chloro-4-(trifluoromethyl)benzyl)-N′-methylimidazo[1,5-a]quinoxaline-8-carbohydrazide]", "CC50": "< 100"}
{"smiles": "[2H]C([2H])([2H])N(C(=O)c1cc2c(cc1F)nc(N)c1cncn12)[C@@H](c1ccc(C(F)(F)F)cc1F)C(F)F", "note": "[Fb-18, (S)-4-amino-N-(2,2-difluoro-1-(2-fluoro-4-(trifluoromethyl)phenyl)ethyl)-7-fluoro-N-(methyl-d3)imidazo[1,5-a]quinoxaline-8-carboxamide]", "CC50": "< 100"}
{"smiles": "CC1(C)CN(C(=O)c2cc3c(cc2F)nc(N)c2cncn23)CC1c1ccccc1", "note": "(stereo not drawn) [Ff-2, (4-amino-7-fluoroimidazo[1,5-a]quinoxalin-8-yl)(3,3-dimethyl-4-phenylpyrrolidin-1-yl)methanone]", "CC50": "100 to 1000"}
{"smiles": "Nc1nc2cc(F)c(C(=O)N3CC4CC4(c4ccc(C(F)(F)F)cc4)C3)cc2n2cncc12", "note": "(stereo not drawn) [Ff-3, (4-amino-7-fluoroimidazo[1,5-a]quinoxalin-8-yl)(1-(4-(trifluoromethyl)phenyl)-3-azabicyclo[3.1.0]hexan-3-yl)methanone]", "CC50": "> 1000"}
{"smiles": "CN(C(=O)c1ccc2nc(N)c3cncn3c2c1)C1CCc2nc(Cl)sc21", "note": "(stereo not drawn) [Ff-15, 4-amino-N-(2-chloro-5,6-dihydro-4H-cyclopenta[d]thiazol-6-yl)-N-methylimidazo[1,5-a]quinoxaline-8-carboxamide]", "CC50": "> 1000"}
{"smiles": "CN(C(=O)c1cc2c(cc1F)nc(N)c1cncn12)C1CCc2nc(Cl)sc21", "note": "(stereo not drawn) [Ff-16, 4-amino-N-(2-chloro-5,6-dihydro-4H-cyclopenta[d]thiazol-6-yl)-7-fluoro-N-methylimidazo[1,5-a]quinoxaline-8-carboxamide]", "CC50": "100 to 1000"}
{"smiles": "CN(Cc1ccc(F)cc1Cl)C(=O)c1ccc2nc(N)c3cncn3c2c1", "note": "[Ff-30, 4-amino-N-(2-chloro-4-fluorobenzyl)-N-methylimidazo[1,5-a]quinoxaline-8-carboxamide]", "CC50": "> 1000"}
{"smiles": "CN(Cc1ccc(F)cc1Cl)C(=O)c1cc2c(cc1F)nc(N)c1cncn12", "note": "[Ff-31, 4-amino-N-(2-chloro-4-fluorobenzyl)-7-fluoro-N-methylimidazo[1,5-a]quinoxaline-8-carboxamide]", "CC50": "100 to 1000"}
{"smiles": "Nc1nc2cc(F)c(C(=O)N3CCOC[C@@H]3c3ccc(C(F)(F)F)cc3)cc2n2cncc12", "note": "[Ff-38, (S)-(4-amino-7-fluoroimidazo[1,5-a]quinoxalin-8-yl)(3-(4-(trifluoromethyl)phenyl)morpholino)methanone]", "CC50": "< 100"}
{"smiles": "CN(C(=O)c1cc2c(cc1F)nc(N)c1cncn12)C1COCc2cc(C(F)(F)F)ccc21", "note": "(stereo not drawn) [Ff-39, 4-amino-7-fluoro-N-methyl-N-(7-(trifluoromethyl)isochroman-4-yl)imidazo[1,5-a]quinoxaline-8-carboxamide]", "CC50": "< 100"}
{"smiles": "CN(C(=O)c1cc2c(cc1F)nc(N)c1cncn12)C1CCOc2cc(C(F)(F)F)ccc21", "note": "(stereo not drawn) [Ff-40, 4-amino-7-fluoro-N-methyl-N-(7-(trifluoromethyl)chroman-4-yl)imidazo[1,5-a]quinoxaline-8-carboxamide]", "CC50": "100 to 1000"}
{"smiles": "Nc1nc2cc(F)c(C(=O)N3CCCC4OCc5cc(C(F)(F)F)ccc5C43)cc2n2cncc12", "note": "(stereo not drawn) [Ff-43, (4-amino-7-fluoroimidazo[1,5-a]quinoxalin-8-yl)(8-(trifluoromethyl)-2,3,4,4a,6,10b-hexahydro-1H-isochromeno[4,3-b]pyridin-1-yl)methanone]", "CC50": "< 100"}
{"smiles": "Cn1cc(N(Cc2ccc(C(F)(F)F)cc2F)C(=O)c2cc3c(cc2F)nc(N)c2cncn23)cn1", "note": "[Ff-45, 4-amino-7-fluoro-N-(2-fluoro-4-(trifluoromethyl)benzyl)-N-(1-methyl-1H-pyrazol-4-yl)imidazo[1,5-a]quinoxaline-8-carboxamide]", "CC50": "< 100"}
{"smiles": "Cn1cc(N(Cc2ccc(C(F)(F)F)cn2)C(=O)c2cc3c(cc2F)nc(N)c2cncn23)cn1", "note": "[Ff-46, 4-amino-7-fluoro-N-(1-methyl-1H-pyrazol-4-yl)-N-((5-(trifluoromethyl)pyridin-2-yl)methyl)imidazo[1,5-a]quinoxaline-8-carboxamide]", "CC50": "< 100"}
{"smiles": "[2H]C([2H])([2H])N(C(=O)c1cc2c(cc1F)nc(N)c1cncn12)[C@@H]1COc2cc(C(F)(F)F)ccc21", "note": "[Ff-47, 4-amino-7-fluoro-N-(methyl-d3)-N-(6-(trifluoromethyl)-2,3-dihydrobenzofuran-3-yl)imidazo[1,5-a]quinoxaline-8-carboxamide]", "CC50": "< 100"}
{"smiles": "CN(Cc1nc(-c2cnn(C(F)F)c2)cs1)C(=O)c1cc2c(cc1F)nc(N)c1cncn12", "note": "[Ff-48, 4-amino-N-((4-(1-(difluoromethyl)-1H-pyrazol-4-yl)thiazol-2-yl)methyl)-7-fluoro-N-methylimidazo[1,5-a]quinoxaline-8-carboxamide]", "CC50": "100 to 1000"}
{"smiles": "Cc1ncc2c(N)nc3ccc(C(=O)N(C)Cc4cc5cc(C(F)(F)F)ccn5n4)cc3n12", "note": "[Ff-49, 4-amino-N,1-dimethyl-N-((5-(trifluoromethyl)pyrazolo[1,5-a]pyridin-2-yl)methyl)imidazo[1,5-a]quinoxaline-8-carboxamide]", "CC50": "> 1000"}
{"smiles": "CC(C)N(Cc1ccc(-c2cnn(C(F)(F)F)c2)cc1F)C(=O)c1ccc2nc(N)c3cncn3c2c1", "note": "[Ff-50, 4-amino-N-(2-fluoro-4-(1-(trifluoromethyl)-1H-pyrazol-4-yl)benzyl)-N-isopropylimidazo[1,5-a]quinoxaline-8-carboxamide]", "CC50": "< 100"}
{"smiles": "CC(C)N(Cc1ccc(-c2cnn(C(F)F)c2)cc1F)C(=O)c1ccc2nc(N)c3cncn3c2c1", "note": "[Ff-51, 4-amino-N-(4-(1-(difluoromethyl)-1H-pyrazol-4-yl)-2-fluorobenzyl)-N-isopropylimidazo[1,5-a]quinoxaline-8-carboxamide]", "CC50": "100 to 1000"}
{"smiles": "Nc1nc2cc(F)c(C(=O)N(Cc3ccc4ncsc4c3)C34CC(C3)C4)cc2n2cncc12", "note": "[Ff-52, 4-amino-N-(benzo[d]thiazol-6-ylmethyl)-N-(bicyclo[1.1.1]pentan-1-yl)-7-fluoroimidazo[1,5-a]quinoxaline-8-carboxamide]", "CC50": "100 to 1000"}
{"smiles": "Nc1nc2cc(F)c(C(=O)N(Cc3ccc(-n4ccnc4)cc3Cl)C34CC(C3)C4)cc2n2cncc12", "note": "[Ff-53, 4-amino-N-(bicyclo[1.1.1]pentan-1-yl)-N-(2-chloro-4-(1H-imidazol-1-yl)benzyl)-7-fluoroimidazo[1,5-a]quinoxaline-8-carboxamide]", "CC50": "< 100"}
{"smiles": "CC(C)N(Cc1ccc(Oc2ccccc2)cc1)C(=O)c1ccc2nc(N)c3cncn3c2c1", "note": "[Ff-57, 4-amino-N-isopropyl-N-(4-phenoxybenzyl)imidazo[1,5-a]quinoxaline-8-carboxamide]", "CC50": "100 to 1000"}
{"smiles": "Cc1ncc2c(N)nc3ccc(C(=O)N4CCC5(CC4)COc4ccccc45)cc3n12", "note": "[Ff-61, (4-amino-1-methylimidazo[1,5-a]quinoxalin-8-yl)(2H-spiro[benzofuran-3,4′-piperidin]-1′-yl)methanone]", "CC50": "> 1000"}
{"smiles": "Nc1nc2ccc(C(=O)N(Cc3ccc(-n4ccnc4)cc3Cl)C34CC(C3)C4)cc2n2cncc12", "note": "[Ff-63, 4-amino-N-(bicyclo[1.1.1]pentan-1-yl)-N-(2-chloro-4-(1H-imidazol-1-yl)benzyl)imidazo[1,5-a]quinoxaline-8-carboxamide]", "CC50": "100 to 1000"}
{"smiles": "Cc1ncc2c(N)nc3ccc(C(=O)N4CCC5(CC4)C(=O)N(C)c4ccccc45)cc3n12", "note": "[Ff-64, 1′-(4-amino-1-methylimidazo[1,5-a]quinoxaline-8-carbonyl)-1-methylspiro[indoline-3,4′-piperidin]-2-one]", "CC50": "100 to 1000"}
